These results are taken from patent US20060100431A1, “Biologically active compounds” (Amura Therapeutics Limited, priority 2002, published 2006).

Each structure is given as a SMILES string.

In this test the target is T1, human cathepsin K (Homo sapiens, UniProt P43235).
T1 construct: Dr. Boris Turk (Josef Stefan Institute, Ljubljana, Slovenia)
T1 sequence (P43235 115-329): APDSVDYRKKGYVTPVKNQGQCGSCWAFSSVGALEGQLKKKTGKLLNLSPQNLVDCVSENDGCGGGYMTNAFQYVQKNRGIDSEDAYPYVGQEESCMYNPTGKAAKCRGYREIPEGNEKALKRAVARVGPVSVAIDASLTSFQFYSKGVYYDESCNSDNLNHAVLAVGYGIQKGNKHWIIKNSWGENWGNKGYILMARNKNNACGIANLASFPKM
Description: Cathepsin K peptidase activity assay (Ki). The format is biochemical. As to conditions: Table 5. The procedure:
Unless otherwise stated, all general chemicals and biochemicals were purchased from either the Sigma Chemical Company, Poole, Dorset, U.K or from Fisher Scientific UK, Loughborough, Leicestershire, U.K. Absorbance assays were carried out in flat-bottomed 96-well plates (Spectra; Greiner Bio-One Ltd., Stonehouse, Gloucestershire, U.K.) using a SpectraMax PLUS384 plate reader (Molecular Devices, Crawley, U.K.). […] Fluorescence assays were monitored using a SpectraMax Gemini fluorescence plate reader (Molecular Devices). For substrates employing either a 7-amino-4-methylcoumarin (AMC) or a 7-amino-4-trifluoromethylcoumarin (AFC) fluorophore, assays were monitored at an excitation wavelength of 365 nm and an emission wavelength of 450 nm and the fluorescence plate reader calibrated with AMC. For substrates employing a 3-amino-benzoyl (Abz) fluorophore, assays were monitored at an excitation wavelength of 310 nm and an emission wavelength of 445 nm; the fluorescence plate reader calibrated with 3-amino-benzamide (Fluka). Unless otherwise indicated, all the peptidase substrates were purchased from Bachem UK, St Helens, Merseyside, UK. […] Hydroxyethylpiperazine ethanesulfonate (HEPES), tris-hydroxylmethyl aminomethane (tris) base, bis-tris-propane and all the biological detergents (e.g. CHAPS, zwittergents, etc.) were purchased from CN Biosciences UK, Beeston, Nottinghamshire, U.K. Glycerol was purchased from Amersham Pharmacia Biotech, Little Chalfont, Buckinghamshire, U.K. Stock solutions of substrate or inhibitor were made up to 10 mM in 100% dimethylsulfoxide (DMSO) (Rathburns, Glasgow, U.K.) and diluted as appropriately required. In all cases the DMSO concentration in the assays was maintained at less than 1% (vol./vol.).
Enzyme was added as required to initiate the reaction and the activity, as judged by the change in fluorescence upon conversion of substrate to product, was monitored over time. All assays were carried out at 25±1° C.
Bovine cathepsin S, human cathepsin L, human cathepsin H and human cathepsin B were obtained from CN Biosciences. Recombinant human cathepsin S, human cathepsin K and human cathepsin X were obtained from Dr. Boris Turk (Josef Stefan Institute, Ljubljana, Slovenia). Unless otherwise stated, all peptidase activity assays were carried out in 10 mM bis-tris-propane (BTP), pH 6.5 containing 1 mM EDTA, 5 mM 2-mercaptoethanol and 1 mM CaCl2.
The apparent inhibition constant (Ki) for each compound was determined on the basis that inhibition was reversible and occurred by a pure-competitive mechanism. […] [formula]
[formula] Ki^app=Ki(1+[So]/KM^app) (4)
Curves were fitted by non-linear regression analysis (Prism) using a fixed value for the enzyme concentration.

`CC(C)C[C@H](NC(=O)c1ccc(-c2cccs2)cc1)C(=O)N1CC[C@@H]2[C@H]1C(=O)CN2C(=O)c1ccccc1` [Example 2, (3aR,6aS)-N-[(1S)-1-(4-Benzoyl-6-oxo-hexahydro-pyrrolo[3,2-b]pyrrole-1-carbonyl)-3-methyl-butyl]-4-thiophen-2-yl-benzamide] returned a Ki of under 0.01 µM.

Compound `O=C(N[C@@H](CC1CCCCC1)C(=O)N1CC[C@@H]2[C@H]1C(=O)CN2C(=O)c1ccccc1)c1ccsc1` [Example 250, (3aR,6aS)-Thiophene-3-carboxylic acid [(1S)-2-(4-benzoyl-6-oxo-hexahydro-pyrrolo[3,2-b]pyrrole-1-yl)-1-cyclohexylmethyl-2-oxo-ethyl]-amide] yielded a Ki of over 5 µM.

Regarding `O=C(N[C@@H](Cc1ccc(O)cc1)C(=O)N1CC[C@@H]2[C@H]1C(=O)CN2C(=O)c1ccccc1)c1cccc2ccccc12` [Example 296, (3aR,6aS)-Naphthalene-1-carboxylic acid [(1S)-2-(4-benzoyl-6-oxo-hexahydro-pyrrolo[3,2-b]pyrrole-1-yl)-1-(4-hydroxybenzyl)-2-oxo-ethyl]-amide], the Ki was over 50 µM.

Take `CC(C)(C)c1ccc(C(=O)N[C@@H](Cc2ccc(O)cc2)C(=O)N2CC[C@@H]3[C@H]2C(=O)CN3C(=O)c2ccccc2)cc1` [Example 346, (3aR,6aS)-N-[(1S)-2-(4-Benzoyl-6-oxo-hexahydro-pyrrolo[3,2-b]pyrrol-1-yl)-1-(4-hydroxybenzyl)-2-oxo-ethyl]-4-tert-butyl-benzamide]: the Ki is over 8 µM.
